# Data published in patent US11484539B2, “Compounds and their uses for alleviating menopause-associated symptoms” (Estetra SPRL, priority 2018, dated 2022).
# Test system: post-menopausal women
# Assay: Hot Flush Weekly Weighted Score, dose-finding study
# Format: in vivo
# Experimental: Further, the terms “Hot Flush Weekly Weighted Score”, as used herein, corresponds to a score taking into account frequency and severity which is calculated by using the severity score (as calculated above): [(1× No. of mild VMS)+(2× No. of moderate VMS)+(3× No. of severe VMS)] during a 7 day period.
# Such a weighted score was for example used by Notelovitz et al. (“Initial 17β-Estradiol Dose for Treating Vasomotor Symptoms”; Obstetrics and Gynaecology, Vol. 95(5), May 2000, p. 726-731). This score was used to generate the data included in Example 1 further below, under section A. c) “Hot Flush Weekly Weighted Score”.
compound,measurement,setting,value
"C[C@]12CC[C@@H]3c4ccc(O)cc4CC[C@H]3[C@@H]1[C@@H](O)[C@@H](O)[C@@H]2O [E4, 1,3,5 (10)-estratrien-3,15alpha,16alpha,17beta-tetrol]",LS adjusted mean change from baseline in Hot Flush Weekly Weighted Score,"2.5 mg E4, week 4",−75.37
same,LS adjusted mean change from baseline in Hot Flush Weekly Weighted Score,"2.5 mg E4, week 12",−89.86
same,Mean change from baseline in Hot Flush Weekly Weighted Score,"2.5 mg E4 QD per os, week 0",2.4151
same,Mean change from baseline in Hot Flush Weekly Weighted Score,"2.5 mg E4 QD per os, week 1",−40.805
same,"Relative change (% from baseline) in Hot Flush Weekly Weighted Score, mean","2.5 mg E4 QD per os, week 1",−22%
same,Mean change from baseline in Hot Flush Weekly Weighted Score,"2.5 mg E4 QD per os, week 2",−58.6163
same,"Relative change (% from baseline) in Hot Flush Weekly Weighted Score, mean","2.5 mg E4 QD per os, week 2",−32%
same,Mean change from baseline in Hot Flush Weekly Weighted Score,"2.5 mg E4 QD per os, week 3",−74.8798
same,"Relative change (% from baseline) in Hot Flush Weekly Weighted Score, mean","2.5 mg E4 QD per os, week 3",−43%
same,Mean change from baseline in Hot Flush Weekly Weighted Score,"2.5 mg E4 QD per os, week 4",−82.75
same,"Relative change (% from baseline) in Hot Flush Weekly Weighted Score, mean","2.5 mg E4 QD per os, week 4",−47%
same,Mean change from baseline in Hot Flush Weekly Weighted Score,"2.5 mg E4 QD per os, week 5",−84.6062
same,"Relative change (% from baseline) in Hot Flush Weekly Weighted Score, mean","2.5 mg E4 QD per os, week 5",−48%
same,Mean change from baseline in Hot Flush Weekly Weighted Score,"2.5 mg E4 QD per os, week 6",−89.9842
same,"Relative change (% from baseline) in Hot Flush Weekly Weighted Score, mean","2.5 mg E4 QD per os, week 6",−51%
same,Mean change from baseline in Hot Flush Weekly Weighted Score,"2.5 mg E4 QD per os, week 7",−94.2468
same,"Relative change (% from baseline) in Hot Flush Weekly Weighted Score, mean","2.5 mg E4 QD per os, week 7",−53%
same,Mean change from baseline in Hot Flush Weekly Weighted Score,"2.5 mg E4 QD per os, week 8",−97.1084
same,"Relative change (% from baseline) in Hot Flush Weekly Weighted Score, mean","2.5 mg E4 QD per os, week 8",−55%
same,Mean change from baseline in Hot Flush Weekly Weighted Score,"2.5 mg E4 QD per os, week 9",−101.429
same,"Relative change (% from baseline) in Hot Flush Weekly Weighted Score, mean","2.5 mg E4 QD per os, week 9",−57%
same,Mean change from baseline in Hot Flush Weekly Weighted Score,"2.5 mg E4 QD per os, week 10",−100.18
same,"Relative change (% from baseline) in Hot Flush Weekly Weighted Score, mean","2.5 mg E4 QD per os, week 10",−57%
same,Mean change from baseline in Hot Flush Weekly Weighted Score,"2.5 mg E4 QD per os, week 11",−97.6016
same,"Relative change (% from baseline) in Hot Flush Weekly Weighted Score, mean","2.5 mg E4 QD per os, week 11",−56%
same,Mean change from baseline in Hot Flush Weekly Weighted Score,"2.5 mg E4 QD per os, week 12",−98.5424
same,"Relative change (% from baseline) in Hot Flush Weekly Weighted Score, mean","2.5 mg E4 QD per os, week 12",−57%
same,"Difference with placebo, LS adjusted mean, absolute change in Hot Flush Weekly Weighted Score","2.5 mg E4 vs placebo, week 4",2.897
same,"Difference with placebo, LS adjusted mean, absolute change in Hot Flush Weekly Weighted Score","2.5 mg E4 vs placebo, week 12",14.83
same,"Differences with placebo, relative change in weekly weighted score, p_value","2.5 mg vs 0 mg, week 4",1.0000
same,"Differences with placebo, relative change in weekly weighted score, p_value","2.5 mg vs 0 mg, week 12",0.6744
same,"Relative change (% from baseline) in weekly weighted score, LS adjusted mean","2.5 mg, Week 12",−0.5795
same,"Relative change (% from baseline) in weekly weighted score, LS adjusted mean","2.5 mg, week 4",−0.474
same,LS adjusted mean change from baseline in Hot Flush Weekly Weighted Score,"5 mg E4, week 4",−66.88
same,LS adjusted mean change from baseline in Hot Flush Weekly Weighted Score,"5 mg E4, week 12",−95.92
same,Mean change from baseline in Hot Flush Weekly Weighted Score,"5 mg E4 QD per os, week 0",1.8297
same,Mean change from baseline in Hot Flush Weekly Weighted Score,"5 mg E4 QD per os, week 1",−33.7092
same,"Relative change (% from baseline) in Hot Flush Weekly Weighted Score, mean","5 mg E4 QD per os, week 1",−22%
same,Mean change from baseline in Hot Flush Weekly Weighted Score,"5 mg E4 QD per os, week 2",−49.1319
same,"Relative change (% from baseline) in Hot Flush Weekly Weighted Score, mean","5 mg E4 QD per os, week 2",−32%
same,Mean change from baseline in Hot Flush Weekly Weighted Score,"5 mg E4 QD per os, week 3",−56.9697
same,"Relative change (% from baseline) in Hot Flush Weekly Weighted Score, mean","5 mg E4 QD per os, week 3",−37%
same,Mean change from baseline in Hot Flush Weekly Weighted Score,"5 mg E4 QD per os, week 4",−64.8344
same,"Relative change (% from baseline) in Hot Flush Weekly Weighted Score, mean","5 mg E4 QD per os, week 4",−43%
same,Mean change from baseline in Hot Flush Weekly Weighted Score,"5 mg E4 QD per os, week 5",−71.6181
same,"Relative change (% from baseline) in Hot Flush Weekly Weighted Score, mean","5 mg E4 QD per os, week 5",−46%
same,Mean change from baseline in Hot Flush Weekly Weighted Score,"5 mg E4 QD per os, week 6",−88.2337
same,"Relative change (% from baseline) in Hot Flush Weekly Weighted Score, mean","5 mg E4 QD per os, week 6",−56%
same,Mean change from baseline in Hot Flush Weekly Weighted Score,"5 mg E4 QD per os, week 7",−88.2989
same,"Relative change (% from baseline) in Hot Flush Weekly Weighted Score, mean","5 mg E4 QD per os, week 7",−56%
same,Mean change from baseline in Hot Flush Weekly Weighted Score,"5 mg E4 QD per os, week 8",−89.2039
same,"Relative change (% from baseline) in Hot Flush Weekly Weighted Score, mean","5 mg E4 QD per os, week 8",−56%
same,Mean change from baseline in Hot Flush Weekly Weighted Score,"5 mg E4 QD per os, week 9",−90.923
same,"Relative change (% from baseline) in Hot Flush Weekly Weighted Score, mean","5 mg E4 QD per os, week 9",−58%
same,Mean change from baseline in Hot Flush Weekly Weighted Score,"5 mg E4 QD per os, week 10",−91.4798
same,"Relative change (% from baseline) in Hot Flush Weekly Weighted Score, mean","5 mg E4 QD per os, week 10",−59%
same,Mean change from baseline in Hot Flush Weekly Weighted Score,"5 mg E4 QD per os, week 11",−95.8365
same,"Relative change (% from baseline) in Hot Flush Weekly Weighted Score, mean","5 mg E4 QD per os, week 11",−61%
same,Mean change from baseline in Hot Flush Weekly Weighted Score,"5 mg E4 QD per os, week 12",−93.5117
same,"Relative change (% from baseline) in Hot Flush Weekly Weighted Score, mean","5 mg E4 QD per os, week 12",−60%
same,"Difference with placebo, LS adjusted mean, absolute change in Hot Flush Weekly Weighted Score","5 mg E4 vs placebo, week 4",11.39
same,"Difference with placebo, LS adjusted mean, absolute change in Hot Flush Weekly Weighted Score","5 mg E4 vs placebo, week 12",8.767
same,"Differences with placebo, relative change in weekly weighted score, p_value","5.0 mg vs 0 mg, week 4",0.8833
same,"Differences with placebo, relative change in weekly weighted score, p_value","5.0 mg vs 0 mg, week 12",0.8871
same,"Relative change (% from baseline) in weekly weighted score, LS adjusted mean","5 mg, Week 12",−0.5993
same,"Relative change (% from baseline) in weekly weighted score, LS adjusted mean","5 mg, week 4",−0.4262
same,LS adjusted mean change from baseline in Hot Flush Weekly Weighted Score,"10 mg E4, week 4",−85.56
same,LS adjusted mean change from baseline in Hot Flush Weekly Weighted Score,"10 mg E4, week 12",−109.8
same,Mean change from baseline in Hot Flush Weekly Weighted Score,"10 mg E4 QD per os, week 0",2.3773
same,Mean change from baseline in Hot Flush Weekly Weighted Score,"10 mg E4 QD per os, week 1",−31.4591
same,"Relative change (% from baseline) in Hot Flush Weekly Weighted Score, mean","10 mg E4 QD per os, week 1",−20%
same,Mean change from baseline in Hot Flush Weekly Weighted Score,"10 mg E4 QD per os, week 2",−54.0849
same,"Relative change (% from baseline) in Hot Flush Weekly Weighted Score, mean","10 mg E4 QD per os, week 2",−35%
same,Mean change from baseline in Hot Flush Weekly Weighted Score,"10 mg E4 QD per os, week 3",−73.5189
same,"Relative change (% from baseline) in Hot Flush Weekly Weighted Score, mean","10 mg E4 QD per os, week 3",−47%
same,Mean change from baseline in Hot Flush Weekly Weighted Score,"10 mg E4 QD per os, week 4",−87.2673
same,"Relative change (% from baseline) in Hot Flush Weekly Weighted Score, mean","10 mg E4 QD per os, week 4",−54%
same,Mean change from baseline in Hot Flush Weekly Weighted Score,"10 mg E4 QD per os, week 5",−93.4648
same,"Relative change (% from baseline) in Hot Flush Weekly Weighted Score, mean","10 mg E4 QD per os, week 5",−58%
same,Mean change from baseline in Hot Flush Weekly Weighted Score,"10 mg E4 QD per os, week 6",−101.646
same,"Relative change (% from baseline) in Hot Flush Weekly Weighted Score, mean","10 mg E4 QD per os, week 6",−64%
same,Mean change from baseline in Hot Flush Weekly Weighted Score,"10 mg E4 QD per os, week 7",−103.024
same,"Relative change (% from baseline) in Hot Flush Weekly Weighted Score, mean","10 mg E4 QD per os, week 7",−64%
same,Mean change from baseline in Hot Flush Weekly Weighted Score,"10 mg E4 QD per os, week 8",−104.835
same,"Relative change (% from baseline) in Hot Flush Weekly Weighted Score, mean","10 mg E4 QD per os, week 8",−66%
same,Mean change from baseline in Hot Flush Weekly Weighted Score,"10 mg E4 QD per os, week 9",−107.578
